Reference: patent US20120100204A1, “TGF-Beta Stimulating Agent Compositions and Combinations” (TCP INNOVATIONS LTD, priority 2007, published 2012)

What was measured:
TGF-beta activity = TGF-beta activity by effect on SMC proliferation (CPD) with and without neutralising anti-TGF-beta antibody; type: cell-based, human; details: 0 μM T, 72 hrs
Protocol: (1995) Cardiovasc. Res. 29:848-55). […] The cells were then incubated for either 24 hrs or 72 hrs depending on the experiment. All treatment conditions were established in triplicate. Finally, TGF-beta activity was estimated by the direct effects on smooth muscle cell proliferation within the assay. For these experiments, the test agents were added, in triplicate, to cells both in the presence and absence of a neutralising antibody to TGF-beta (AB-100-NA; […] R&D Systems). After 72 hrs incubation, the cells are washed and then released completely using 0.02% trypsin/EDTA (Gibco) at 37° C. for 10 mins, then counted manually using a haemocytometer. Importantly, the number of cells at 0 hrs must also be determined (using the same counting method, on a replicate set of three wells plated out specifically for the purpose). For each treatment condition, the TGF-beta-dependent inhibition of proliferation is expressed as the fold increase in the cumulative population doubling time in the absence of the neutralising antibody compared to the cumulative population doubling time in the presence of the neutralising antibody. […] Failure of either control led to the repeat of the experiment.

[1] = tested on: anti-carbohydrate antibodies; assay: anti-carbohydrate antibody isotype profile in serum of men with coronary artery disease, direct ELISA; type: in vivo, human; details: 3 months
Protocol: Blood samples were also taken at baseline, immediately prior to beginning the drug treatments, and also after 90 days. The blood was drawn from the antecubital fossa using 19-gauge butterfly needles, and dispensed into polypropylene tubes, where it was allowed to clot for between 2 and 3 hours at room temperature. The clot was released, and the sample spun (450×g; 4 mins), and the serum supernatant removed, aliquoted and stored frozen at −80° C. until analysed.
The level of anti-carbohydrate antibodies was measured by direct ELISA as previously described (Mosedale et al (2006) J. Immunol. Meth. 309:182-91). Briefly, Maxisop 96-well plates were coated with BSA-alpha-Gal (Glycorex) at 1 μg/well in 200 μl of Sodium Carbonate pH9.0 overnight at 4° C. After three quick washes with PBS, non-specific binding was blocked using 3% BSA in PBS at room temperature for 1 hour. After three further washes the serum was added at various dilutions ranging from neat to 1:100 dilution in PBS, then incubated for 2 hours at room temperature with shaking. The serum was then discarded, the plate washed 5 further times with PBS+0.1% Tween-20, and replicate strips (each containing a full range of dilutions of the same serum sample) were exposed to highly specific monoclonal antibodies to each isotype, including IgG1, IgG2, IgG3, IgG4, IgM, IgA, IgE and IgD, at 1 μg/ml in blocking buffer. After a further hour at room temperature with shaking, the antibody was discarded and the plate washed 3 further times with PBS/Tween, before being exposed to donkey anti-mouse IgG minimum cross reactivity, coupled to horseradish peroxidase (Jackson Immunoresearch), at 1 μg/ml in blocking buffer for a further 1 hour at room temperature with shaking. After a final 3 washes in PBS/Tween and single wash in PBS, 200 μl of K-blue chromogenic substrate was added to each well. After a carefully controlled period, accurate to 5 seconds, equal for all wells, the reaction was stopped by the addition of 50 μl 2M HCl and the colour read at 450 nm. Results are reported for each isotype as the mean titre (that is, the dilution of serum which yielded 50% of the maximal signal) as well as the mean signal at that titre (since the maximum absorbance in many cases was considerably below full scale deflection).
Blood samples were also taken at baseline, immediately prior to beginning the drug treatments, and also after 90 days, and serum prepared exactly as in Example 5. The level of anti-carbohydrate antibodies was then measured by direct ELISA using the procedure given in Example 5.

[2] = Tamoxifen 20 mg once daily, aspirin 75 mg once daily, mean ± SD
[3] = neat serum, Tamoxifen 20 mg once daily, aspirin 75 mg once daily, mean ± SD

| Structure (SMILES) | TGF-beta activity: ratio of CPD in the absence and presence of neutralising anti-TGF-beta antibody (TGF-beta activity; 10 μM A) [fold] | TGF-beta activity: ratio of CPD in the absence and presence of neutralising anti-TGF-beta antibody (TGF-beta activity; 33 μM A) [fold] | TGF-beta activity: ratio of CPD in the absence and presence of neutralising anti-TGF-beta antibody (TGF-beta activity; 100 μM A) [fold] | TGF-beta activity: ratio of CPD in the absence and presence of neutralising anti-TGF-beta antibody (TGF-beta activity; 100 μM A, listed as A) [fold] | IgA titre, change versus baseline [1, 2] | IgD titre, change versus baseline [1, 2] | IgG2 titre, change versus baseline [1, 2] | IgM titre, change versus baseline [1, 2] | absorbance of the IgA class anti-carbohydrate antibodies (in words) ([1]; Example 6) | titre of IgD class anti-carbohydrate antibodies (in words) ([1]; Example 6) | titre of the IgG2 class anti-carbohydrate antibodies (in words) ([1]; Example 6) | IgA Absorbance, change versus baseline [1, 3] | IgD Absorbance, change versus baseline [1, 3] | IgG2 Absorbance, change versus baseline [1, 3] | IgM Absorbance, change versus baseline [1, 3] |
| --- | --- | --- | --- | --- | --- | --- | --- | --- | --- | --- | --- | --- | --- | --- | --- |
| CC(=O)Oc1ccccc1C(=O)O [Aspirin, acetylsalicylic acid] | 1.05 ± 0.09 | 1.13 ± 0.17 | 1.25 | 1.25 ± 0.06 |  |  |  |  |  |  |  |  |  |  |  |
| CC/C(=C(\c1ccccc1)c1ccc(OCCN(C)C)cc1)c1ccccc1 [Tamoxifen] |  |  |  |  | +14% ± 52% | −234% ± 113% | +176% ± 43% | +16% ± 28% | statistically significantly increased | statistically significantly reduced | statistically significantly increased | 0.31 ± 0.17 | −0.82 ± 0.51 | +0.61 ± 0.17 | −0.29 ± 0.36 |
